# According to patent US11596631B2, “CDK12 inhibitors and their uses” (The University of Nottingham, priority 2016, dated 2023):
# Columns and labels:
# [1] = test system: nuclear foci in DM1 fibroblasts; assay: nuclear foci assay (in situ hybridisation with Cy3 CAG10 probe, high content imaging); type: cell-based; settings: for reduction in foci on exposure for different lengths of time: 2 hours to 48 hours; for activity in the nuclear foci assay (nuclear foci relative to DMSO treated cells): DM1 fibroblasts, 24 hours, dilution series
# Experimental: Using a previously reported assay the PKIS collection was screened for compounds that reduce nuclear foci and the compounds were then analysed for their known selectivity profiles to identify the common kinase targets (Ketley, A. et al. (2014). Hum Mol Genet, 23: 1551-1562). […] Following treatment, fluorescent in situ hybridisation was performed with a cy3 labelled CAG10 probe, to visualize nuclear foci and cells were analysed on a Molecular Devices plate reader with customised MetaExpress software (Ketley, A. et al. (2014). Hum Mol Genet, 23: 1551-1562). Compounds that reduced nuclear foci in a concentration dependent manner, compared to DMSO treated cells were identified and prioritized for further study.
# […] Plates were analysed on a Molecular Devices Micro High Content Imaging system, with nine fields imaged per well to give approximately 100 cells per well, per compound treatment. The nuclear area was identified by Hoechst stain and the number, size and intensity of foci was determined by scoring adjacent pixels that were 80 grayscales or more above background.
# [2] = target: T1, CDK12 (Homo sapiens, UniProt Q9NYV4); assay: chemoproteomics dose-response competition binding with SNS-032 affinity matrix; settings: K562 or A204 cell extract, SNS-032 beads
# T1 construct: endogenous in cells; host or cells: K562 or A204 cell extract
# From the text: FIG. 4: Chemoproteomics target deconvolution. IC50 values were generated by affinity capturing of kinases from K562 or A204 cell extract using beads derivatized with SNS-032, in the presence of different concentrations of free competing compound or vehicle (DMSO). pIC50 values are plotted against the pIC50 in the foci inhibition assay for each compound. A good correlation of kinase binding affinity with the inhibitory activity on foci is observed for CDKS, CDK7, CDK9, and CDK12. r: Pearson correlation coefficient; p: p-value (calculated probability).
# To determine the specific CDKs responsible for the reduction of nuclear foci it was sought to expand the target coverage within the CDK family by the immobilization of two of the active compounds containing a suitable secondary amine; SNS-032 and AT7519 (FIG. 10). […] To confirm that the K562, A204 and DM1 cell lines express the same kinases a whole proteome analysis was conducted. All CDK/PCTK proteins identified by profiling were also identified in the cells used for the phenotypic foci assay as follows: […]
# Affinity profiling was performed as described previously (Bantscheff, M. et al. (2007). Nat Biotechnol, 25: 1035-1044 and Bantscheff, M. et al. (2011). Nat Biotechnol, 29: 255-265). […] Proteins were alkylated, separated on 4-12% NuPAGE (Invitrogen), stained with colloidal Coomassie, and quantified by isobaric mass tagging and LC-MS/MS.
# [3] = test system: mutant DMPK transcripts in DM1 fibroblast cells; assay: RT-PCR / BpmI assay for repeat expansion transcripts; type: cell-based
# Experimental: (A) Ethidium bromide stained gel showing RT-PCR products from nuclear (N) and cytoplasmic (C) RNA fractions following amplification and BpmI digest of a fragment of DMPK. GAPDH is used as a loading control. […] (D) DM1 cells treated with SNS-032 for 2 hours.
# Reverse transcription was performed using 1 μg total RNA from compound-treated and untreated cells. […] For Genescan analysis primer N11 was labelled with FAM. Amplification was performed with a Tm of 58° C. The PCR product was subsequently heated to 95° C. for 2 minutes followed by cooling to 4° C. For Bpml restriction digestion analysis of DMPK PCR products, 8 μl of PCR mixture was digested overnight with restriction enzyme Bpml (NEB) in a total reaction volume of 20 μl at 37° C. The final products were analysed by electrophoresis at 90V with 3% agarose gels and the density of bands quantified using ImageJ software or by fragment analysis on an AB1377 sequencer followed by Genescan quantification.
# [4] = test system: HSALR mice; assay: inhibitor treatment in DM1 mouse model; type: in vivo; settings: compared to vehicle control animals
# Experimental: FIG. 7: Inhibitor treatment in a DM1 mouse model (A) Combined myotonia grade scores in quadriceps, gastrocnemius and paraspinal muscles from HSALR mice following vehicle and dinaciclib compound treatment (n=6 per treatment group) (B) Myotonia grades by muscle type in dinaciclib and vehicle treated HSALR mice.
# To establish the in vivo effect of this inhibitor HSA^LR mice were treated by intraperitoneal injection for a 28 day treatment period comprising 12 injections in total.
# [5] = target: CDK9 (Homo sapiens, UniProt P50750); settings: previously reported IC50 values (FIG. 13); cited from earlier work
# [6] = DM1 cells, 2 hours treatment, no recovery time
# Chain of CDK9 (P50750 whole entry): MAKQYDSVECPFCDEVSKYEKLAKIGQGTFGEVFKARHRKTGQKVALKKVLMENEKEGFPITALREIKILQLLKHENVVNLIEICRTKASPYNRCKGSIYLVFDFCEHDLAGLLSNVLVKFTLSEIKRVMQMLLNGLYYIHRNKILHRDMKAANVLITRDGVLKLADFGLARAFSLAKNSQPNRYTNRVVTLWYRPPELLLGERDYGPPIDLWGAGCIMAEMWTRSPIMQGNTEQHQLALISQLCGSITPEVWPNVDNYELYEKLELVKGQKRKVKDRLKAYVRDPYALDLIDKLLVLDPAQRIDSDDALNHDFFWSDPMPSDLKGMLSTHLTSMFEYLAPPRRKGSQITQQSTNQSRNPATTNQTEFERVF
# Chain of CDK9 (O60563 whole entry partner): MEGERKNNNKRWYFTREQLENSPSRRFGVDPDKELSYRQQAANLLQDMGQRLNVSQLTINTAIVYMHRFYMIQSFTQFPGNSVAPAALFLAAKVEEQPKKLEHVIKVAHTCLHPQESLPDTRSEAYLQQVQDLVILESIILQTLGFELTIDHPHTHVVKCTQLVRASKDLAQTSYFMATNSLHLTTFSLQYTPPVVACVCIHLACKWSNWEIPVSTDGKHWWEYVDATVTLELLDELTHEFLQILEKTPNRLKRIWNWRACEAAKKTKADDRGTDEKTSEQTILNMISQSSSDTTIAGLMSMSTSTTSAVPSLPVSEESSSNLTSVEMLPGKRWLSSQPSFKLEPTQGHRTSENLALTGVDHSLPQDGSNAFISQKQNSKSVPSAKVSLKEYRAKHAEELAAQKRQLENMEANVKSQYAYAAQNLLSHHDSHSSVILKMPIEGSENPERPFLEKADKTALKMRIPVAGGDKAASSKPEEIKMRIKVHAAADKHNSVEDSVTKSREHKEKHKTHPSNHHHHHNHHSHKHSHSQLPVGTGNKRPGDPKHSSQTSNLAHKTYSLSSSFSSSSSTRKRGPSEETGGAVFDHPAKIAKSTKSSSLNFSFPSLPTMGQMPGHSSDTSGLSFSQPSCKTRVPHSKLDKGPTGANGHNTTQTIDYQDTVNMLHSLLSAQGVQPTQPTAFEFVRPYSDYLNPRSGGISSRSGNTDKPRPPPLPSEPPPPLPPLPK
# T1 sequence (Q9NYV4 whole entry): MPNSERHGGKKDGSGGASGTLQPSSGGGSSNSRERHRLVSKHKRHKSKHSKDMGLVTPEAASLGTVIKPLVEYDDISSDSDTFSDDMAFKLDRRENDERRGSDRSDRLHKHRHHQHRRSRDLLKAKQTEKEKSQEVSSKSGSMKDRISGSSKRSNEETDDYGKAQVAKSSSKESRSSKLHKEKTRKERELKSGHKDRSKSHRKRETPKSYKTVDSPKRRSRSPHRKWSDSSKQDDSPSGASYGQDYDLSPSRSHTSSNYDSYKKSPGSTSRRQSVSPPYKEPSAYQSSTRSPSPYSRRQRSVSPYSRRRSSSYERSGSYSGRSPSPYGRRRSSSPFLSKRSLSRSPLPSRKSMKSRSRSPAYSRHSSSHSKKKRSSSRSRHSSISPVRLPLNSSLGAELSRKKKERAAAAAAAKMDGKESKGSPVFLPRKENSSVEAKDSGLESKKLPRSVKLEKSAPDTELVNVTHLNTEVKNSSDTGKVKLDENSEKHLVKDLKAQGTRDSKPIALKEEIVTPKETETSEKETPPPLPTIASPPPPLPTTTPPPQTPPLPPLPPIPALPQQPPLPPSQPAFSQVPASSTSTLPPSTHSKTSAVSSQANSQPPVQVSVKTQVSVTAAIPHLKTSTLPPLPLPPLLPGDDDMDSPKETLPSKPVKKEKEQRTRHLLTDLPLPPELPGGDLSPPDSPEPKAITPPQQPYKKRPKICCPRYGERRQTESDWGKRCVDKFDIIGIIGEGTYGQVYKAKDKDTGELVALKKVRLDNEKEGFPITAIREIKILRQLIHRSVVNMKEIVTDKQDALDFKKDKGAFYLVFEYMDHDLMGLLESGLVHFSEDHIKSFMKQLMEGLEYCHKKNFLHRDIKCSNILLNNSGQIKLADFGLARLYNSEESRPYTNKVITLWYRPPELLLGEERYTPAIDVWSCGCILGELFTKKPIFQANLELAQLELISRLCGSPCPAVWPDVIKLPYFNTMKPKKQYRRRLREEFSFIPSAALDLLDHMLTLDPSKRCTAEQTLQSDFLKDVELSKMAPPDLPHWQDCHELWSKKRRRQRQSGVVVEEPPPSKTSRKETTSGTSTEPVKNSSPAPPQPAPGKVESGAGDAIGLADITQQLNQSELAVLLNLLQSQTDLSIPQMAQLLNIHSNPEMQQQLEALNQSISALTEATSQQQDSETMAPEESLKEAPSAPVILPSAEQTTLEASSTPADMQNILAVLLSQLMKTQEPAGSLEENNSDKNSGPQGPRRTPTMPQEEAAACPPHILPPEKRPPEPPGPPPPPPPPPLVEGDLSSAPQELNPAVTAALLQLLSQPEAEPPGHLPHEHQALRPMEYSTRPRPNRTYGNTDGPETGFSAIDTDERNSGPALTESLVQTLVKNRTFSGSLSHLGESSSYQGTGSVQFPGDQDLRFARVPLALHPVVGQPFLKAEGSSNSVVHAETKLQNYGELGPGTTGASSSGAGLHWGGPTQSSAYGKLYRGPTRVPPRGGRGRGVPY
# T1 sequence (O75909 whole entry partner): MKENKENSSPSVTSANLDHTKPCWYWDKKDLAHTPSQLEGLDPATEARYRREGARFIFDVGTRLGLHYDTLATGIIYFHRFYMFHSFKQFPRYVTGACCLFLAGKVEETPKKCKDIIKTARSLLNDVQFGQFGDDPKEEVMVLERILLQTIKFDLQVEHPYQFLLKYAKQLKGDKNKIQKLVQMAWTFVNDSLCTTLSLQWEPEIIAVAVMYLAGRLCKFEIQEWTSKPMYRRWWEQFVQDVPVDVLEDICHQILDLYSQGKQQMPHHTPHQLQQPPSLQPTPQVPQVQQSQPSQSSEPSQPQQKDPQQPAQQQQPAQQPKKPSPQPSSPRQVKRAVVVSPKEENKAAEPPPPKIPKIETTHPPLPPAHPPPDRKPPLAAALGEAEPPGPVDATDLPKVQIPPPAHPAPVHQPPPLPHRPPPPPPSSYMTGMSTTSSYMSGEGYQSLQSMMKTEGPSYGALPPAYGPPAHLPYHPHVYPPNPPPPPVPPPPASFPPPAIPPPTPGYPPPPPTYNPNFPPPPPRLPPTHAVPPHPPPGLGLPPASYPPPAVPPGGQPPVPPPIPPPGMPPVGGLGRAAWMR
SMILES,reduction in foci on exposure for different lengths of time ([1]; DM1 fibroblast cells),activity in the nuclear foci assay (nuclear foci relative to DMSO treated cells) [1],"activity against the CDK family, in particular CDK12 [2]",location of repeat expansion transcripts after treatment (nuclear and cytoplasmic extracts) [3],"decrease in the relative proportion of repeat expansion transcripts compared to wild type transcripts in the nucleus ([3]; 1 μM, 24 hours, Genescan)",centralised nuclei in muscle fibres (laminin stain) [4],"cells without nuclear foci ([1]; DM1 cells, 2 hours treatment, 48 hours recovery)","cells without nuclear foci ([1]; DM1 cells, 2 hours treatment, 72 hours recovery)","cells with more than 5 foci [1, 6]","cells with no foci [1, 6]",treatment time after which foci reduction was effective ([1]; DM1 fibroblast cells),potency against CDK9 [5]
CCc1cnn2c(NCc3ccc[n+]([O-])c3)cc(N3CCCC[C@H]3CCO)nc12 [dinaciclib],significant reduction in foci,significantly increased activity,most active inhibitor,still retained within the nuclear fraction,59%,reduction in centralised nuclei,,,,,,
CC(C)(C)c1cnc(CSc2cnc(NC(=O)C3CCNCC3)s2)o1 [SNS-032],significant reduction in foci,high activity,,,,,14%,36%,28%,10%,2 h,highest potency
O=C(NC1CCNCC1)c1[nH]ncc1NC(=O)c1c(Cl)cccc1Cl [AT-7519],,high activity,,,,,,,,,,highest potency
